We go through five compounds from patent publication US20250326722A1 (SHANGHAI HANSOH BIOMEDICAL CO., LTD., priority 2022, published 2025).

One series deals with PCSK9 protein (Homo sapiens (Human), UniProt Q8NBP7). The experiment in a line: Binding experiment: surface plasmon resonance (SPR) binding to PCSK9 protein. From the text: • 1. Experimental objective: To detect the action of compounds to bind PCSK9 protein by a conventional surface plasmon resonance (SPR) method.
Background: Surface plasmon resonance follows binding to a sensor surface in real time, without labels.

Series [1] is described as follows: Pharmacokinetic determination in mice (plasma). It counts as in vivo, C57BL/6J mice. The following applies: C57 mice, PO administration, 5 mpk; for AUC(0-inf) / half-life / MRT / Cmax: male, C57BL/6J, mouse, 5 mg/kg; for AUC(0-inf): read-out: Area under the curve AUC0-∞; for half-life: read-out: Half-life t1/2 (converted); for MRT: read-out: Mean residence time MRT; for Cmax: read-out: Plasma concentration Cmax. The procedure, abridged:
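Male C57BL/6J mice (n=3 per route), fasted overnight, got 5 mg/kg PO in 10% Solutol HS15 or 1 mg/kg IV in 5% DMSO/10% Solutol HS15/85% PBS. Orbital blood was sampled at 0.083 (IV only), 0.25, 0.5, 1, 2, 4, 8 and 24 h. EDTA-K2 plasma was quantified by LC-MS/MS for PK parameters.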

For series [2], the target named is PCSK9 secreted by HepG2 cells (Homo sapiens (Human), UniProt Q8NBP7). As to the kind of experiment: Effect on the concentration of PCSK9 secreted by HepG2 cells (ELISA). The format is cell-based. The settings on record: 48 hours incubation, read-out: Inhibitory activity on PCSK9, IC50.
PCSK9 secreted by HepG2 cells, sequence (Q8NBP7 153-692): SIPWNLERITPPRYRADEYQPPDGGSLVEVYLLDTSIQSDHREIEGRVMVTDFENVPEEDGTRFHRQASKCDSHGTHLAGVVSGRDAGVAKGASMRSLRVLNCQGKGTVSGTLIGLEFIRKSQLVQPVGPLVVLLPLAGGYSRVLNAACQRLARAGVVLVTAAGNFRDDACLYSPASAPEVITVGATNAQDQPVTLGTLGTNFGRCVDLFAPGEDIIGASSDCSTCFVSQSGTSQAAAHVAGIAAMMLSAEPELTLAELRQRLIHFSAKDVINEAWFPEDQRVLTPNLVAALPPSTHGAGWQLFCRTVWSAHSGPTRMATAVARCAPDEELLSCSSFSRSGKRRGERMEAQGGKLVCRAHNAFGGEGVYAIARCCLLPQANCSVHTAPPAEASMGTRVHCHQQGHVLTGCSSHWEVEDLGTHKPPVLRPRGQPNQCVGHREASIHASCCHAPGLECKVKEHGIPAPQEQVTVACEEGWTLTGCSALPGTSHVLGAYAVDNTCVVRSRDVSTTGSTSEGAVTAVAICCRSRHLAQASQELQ
PCSK9 secreted by HepG2 cells, sequence (Q8NBP7 31-152 partner): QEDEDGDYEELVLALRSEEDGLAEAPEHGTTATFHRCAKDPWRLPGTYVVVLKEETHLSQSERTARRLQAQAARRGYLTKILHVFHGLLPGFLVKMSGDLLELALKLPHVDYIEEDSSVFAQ
Series [3] relates to hyperlipidemia animal model of B6-hPCSK9 transgenic mice. As to the kind of experiment: In vivo pharmacodynamics in hyperlipidemia animal model of B6-hPCSK9 transgenic mice. On the set-up: species or system B6-hPCSK9 transgenic C57 mice. The following applies: PO administration, Day 14, high-fat feed. The method, then:
The compounds of the present disclosure were evaluated for in vivo pharmacodynamics in a hyperlipidemia animal model of B6-hPCSK9 transgenic mice.
B6-hPCSK9 transgenic C57 mice, 6-8 weeks old, male, purchased from Jiangsu GemPharmatech Co., Ltd.
After delivery to a barrier system, the animals were given one week for acclimatization and began to feed on the high-fat feed. The body weight and feed weight were weighed once a week, and the body weight and food intake thereof were recorded.
a. The animals were grouped by a random grouping method.
c. According to the grouping results, administration with the test drug was started (mode of administration: oral administration; administration volume: 10 mL/kg; frequency of administration: once/day or single administration; administration cycle: 21 days; vehicle: 10% Solutol HS 15/90% Saline).
d. After the test drug was administered, the body weight and feed weight were weighed twice a week and blood was taken once a week.
e. The data was processed with software such as Excel. […] PCSK9 in plasma was detected by ELISA.

For the next series, the system named is LDL-C. The following applies: combined with a statin; cited from earlier work.

PCSK9 protein, sequence (Q8NBP7 153-692): as the sequence (Q8NBP7 153-692) above

Usually Kd stands for the equilibrium constant for the complex coming apart. Read a high Kd as a looser complex. As usually defined, the MRT is a mean duration of stay, worked out from the concentration-time curve. The IC50 is the concentration needed to halve the response being measured. Compound `Cc1nccc2c1CN(c1ccc(N[C@H]3CC[C@H](Nc4nc5cc(F)ccn5n4)C3)nc1)C2=O` [Example 149, 2-(6-(((1S,3S)-3-((7-fluoro-[1,2,4]triazolo[1,5-a]pyridin-2-yl)amino)cyclopentyl)amino)pyridin-3-yl)-4-methyl-2,3-dihydro-1H-pyrrolo[3,4-c]pyridin-1-one] showed a Kd on PCSK9 protein of 1.4 nM. Further, in series [1], the Time to peak tmax is 0.5 h, the AUC(0-inf) amounted to 24200 ng·h/mL, the half-life was 4.8 h and the MRT stood at 2.4 h. In series [1], the Cmax was 12300 ng/mL. In series [2], the half-maximal inhibitory concentration (IC50) was determined as 15500 nM. The “LDL-C change, Day 14” value in series [3] (10 mpk) is −41.65%.
The compound `O=c1ccccn1-c1ccc(N[C@H]2CC[C@H](Nc3nc4cc(F)ccn4n3)C2)nc1` [Example 27, 6′-((3-(((1S,3S)-7-fluoro-[1,2,4]triazolo[1,5-a]pyridin-2-yl)amino)cyclopentyl)amino)-2H-[1,3′-bipyridinyl]-2-one] yielded a Kd at PCSK9 protein of 2.6 nM. The “LDL-C change, Day 14” value in series [3] (6 mpk) is recorded as −31.52%.
For the compound `O=C1[C@H](CC[C@H](O)c2ccc(F)cc2)[C@@H](c2ccc(O)cc2)N1c1ccc(F)cc1` [Ezetimibe], the LDL-C reduction in the series on LDL-C was 15-20%.
Compound `Cc1cc2c(cn1)CN(c1ccc(N[C@H]3CC[C@H](Nc4nc5cc(C(F)(F)F)ccn5n4)C3)nc1)C2=O` [Example 156, 6-Methyl-2-(6-(((1S,3S)-3-((7-(trifluoromethyl)-[1,2,4]triazolo[1,5-a]pyridin-2-yl)amino)cyclopentyl)amino)pyridin-3-yl)-2,3-dihydro-1H-pyrrolo[3,4-c]pyridin-1-one] registered a Kd at PCSK9 protein of 4.8 nM. Moreover, in series [1], the Time to peak tmax came to 1 h, the AUC(0-inf) was found to be 19700 ng·h/mL, the half-life was 3.6 h and the MRT is 3.2 h. Moreover, the Cmax in series [1] turned out to be 5010 ng/mL. For the same compound, in series [2], the IC50 was 2100 nM. For the same compound, the “LDL-C change, Day 14” value in series [3] (10 mpk) was −25.97%.
`O=C1c2ncccc2CN1c1ccc(N[C@H]2CC[C@H](Nc3nc4cc(C(F)(F)F)ccn4n3)C2)nc1` [Example 143, 6-(6-(((1S,3S)-3-((7-(trifluoromethyl)-[1,2,4]triazolo[1,5-a]pyridin-2-yl)amino)cyclopentyl)amino)pyridin-3-yl)-5,6-dihydro-7H-pyrrolo[3,4-b]pyridin-7-one]: the dissociation constant Kd at PCSK9 protein is 1.2 nM. In addition, in series [1], the Time to peak tmax came out at 1 h, the AUC(0-inf) came to 11600 ng·h/mL, the half-life was 3.9 h and the MRT is 2.2 h. Besides, the Cmax in series [1] was determined as 3870 ng/mL. In series [3] (10 mpk), the “LDL-C change, Day 14” value was −34.97%.
